Drawing on PubChem BioAssay (NCI), this text covers GI50 and TGI for six compounds.

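These data come from cells grown in 96-well plates and exposed to compound for 48 hours at five concentrations. At the GI50, growth is halved. TGI is the concentration that stops growth completely.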

Test systems include NCI-H460 lung; UACC-62 melanoma; SK-MEL-2 melanoma; EKVX NSCLC; RXF 393 renal; SK-MEL-28 melanoma; SNB-75 CNS; SNB-19 CNS; HL-60(TB) leukemia; M14 melanoma.
Experiment in all cases: NCI-60 cell line screen, 48 h

Regarding `C[C@@H]1OCC2(CCN(c3cnc(Sc4ccnc(N)c4Cl)c(N)n3)CC2)[C@@H]1N`, the GI50 in the assay on NCI-H460 lung was > 100 µM; with UACC-62 melanoma, > 100 µM; with SK-MEL-2 melanoma, > 100 µM; in the assay on EKVX NSCLC, 0.573 µM; in the assay on RXF 393 renal, 3.46 µM; with SK-MEL-28 melanoma it was > 100 µM. The GI50 in the assay on SNB-75 CNS was 15.1 µM; in the assay on SNB-19 CNS it was > 100 µM; with HL-60(TB) leukemia it was > 100 µM; with M14 melanoma, > 100 µM. In addition, the TGI with NCI-H460 lung was > 100 µM; in the assay with UACC-62 melanoma, > 100 µM; in the assay on SK-MEL-2 melanoma, > 100 µM; with EKVX NSCLC, > 100 µM; in the assay with RXF 393 renal, > 67.6 µM; with SK-MEL-28 melanoma it was > 100 µM. Moreover, the TGI in the assay with SNB-75 CNS, with SNB-19 CNS, in the assay with HL-60(TB) leukemia and with M14 melanoma was > 100 µM throughout.

For `CCCCCC/C=C1\CCC(CN(C)C)C1=O` (stereo not given), the TGI in the assay with NCI-H460 lung was 35.1 µM; with UACC-62 melanoma, 14.9 µM; with SK-MEL-2 melanoma, 26.6 µM; in the assay with EKVX NSCLC, 42.3 µM; in the assay on RXF 393 renal it was 9.8 µM; with SK-MEL-28 melanoma, 12 µM. Further, the TGI with SNB-75 CNS turned out to be 23.8 µM; in the assay on SNB-19 CNS, 30.8 µM; in the assay on HL-60(TB) leukemia, 4.8 µM; with M14 melanoma, 16.7 µM.

Turning to `Clc1ccc2c(NCCNc3nc(N4CCCC4)nc4ccccc34)ccnc2c1`, the GI50 was 0.22 µM with NCI-H460 lung; 1.8 µM in the assay with UACC-62 melanoma; 1.86 µM with SK-MEL-2 melanoma; 2.08 µM with EKVX NSCLC; 1.23 µM in the assay with RXF 393 renal; 1.84 µM in the assay on SK-MEL-28 melanoma. In addition, the GI50 in the assay with SNB-75 CNS was 1.37 µM; in the assay with SNB-19 CNS, 1.6 µM; with HL-60(TB) leukemia, 0.704 µM; in the assay on M14 melanoma it was 0.935 µM. Besides, the TGI was found to be 0.506 µM in the assay on NCI-H460 lung; 3.5 µM with UACC-62 melanoma; 3.85 µM in the assay with SK-MEL-2 melanoma; 7.65 µM in the assay on EKVX NSCLC; 2.63 µM in the assay on RXF 393 renal; 3.55 µM in the assay on SK-MEL-28 melanoma. The TGI in the assay with SNB-75 CNS stood at 3 µM; with SNB-19 CNS, 5.62 µM; in the assay on HL-60(TB) leukemia, 1.54 µM; in the assay with M14 melanoma, 2.76 µM.

For the compound `N#Cc1nn(-c2cc(=O)[nH]c3ccc(Br)cc23)c(N)c1C#N`, the GI50 was > 100 µM in the assay with NCI-H460 lung; > 100 µM in the assay on UACC-62 melanoma; > 100 µM in the assay with SK-MEL-2 melanoma; 4.6 µM in the assay on EKVX NSCLC; > 100 µM with RXF 393 renal; > 100 µM in the assay on SK-MEL-28 melanoma. In addition, the GI50 with SNB-75 CNS is 57.1 µM; with SNB-19 CNS it was > 100 µM; in the assay on HL-60(TB) leukemia, > 100 µM; with M14 melanoma, > 100 µM. The TGI in the assay with NCI-H460 lung, in the assay with UACC-62 melanoma, in the assay with SK-MEL-2 melanoma, with EKVX NSCLC, in the assay on RXF 393 renal and in the assay on SK-MEL-28 melanoma was > 100 µM each time. Also, the TGI with SNB-75 CNS, in the assay with SNB-19 CNS, with HL-60(TB) leukemia and with M14 melanoma was > 100 µM throughout.

On to `COc1cc(N2CCC(N3CCN(C)CC3)CC2)ccc1Nc1ncc(Cl)c(Nc2ccccc2S(=O)(=O)C(C)C)n1`, for which the GI50 in the assay on NCI-H460 lung is 0.604 µM; in the assay with UACC-62 melanoma, 1.18 µM; in the assay with SK-MEL-2 melanoma, 1.33 µM; with EKVX NSCLC it was 0.489 µM; in the assay on RXF 393 renal, 0.6 µM; in the assay with SK-MEL-28 melanoma it was 1.74 µM. In addition, the GI50 in the assay on SNB-75 CNS is 0.919 µM; with SNB-19 CNS, 2.07 µM; in the assay with HL-60(TB) leukemia, 0.327 µM; with M14 melanoma it was 1.16 µM. Moreover, the TGI in the assay with NCI-H460 lung stood at 5.11 µM; with UACC-62 melanoma, 3.39 µM; in the assay on SK-MEL-2 melanoma it was 3.45 µM; with EKVX NSCLC, 11.5 µM; in the assay with RXF 393 renal it was 1.86 µM; in the assay on SK-MEL-28 melanoma, 3.41 µM. Besides, the TGI in the assay on SNB-75 CNS came out at 2.17 µM; in the assay on SNB-19 CNS, 12.2 µM; in the assay with HL-60(TB) leukemia, 1.4 µM; with M14 melanoma, 2.51 µM.

Turning to `COc1cc(C)c(NC(=O)CN(C)C)cc1Nc1nc(Nc2cccc(F)c2C(N)=O)c2cc[nH]c2n1`, the GI50 with NCI-H460 lung is 0.604 µM; in the assay on UACC-62 melanoma, 1.16 µM; in the assay on SK-MEL-2 melanoma, 0.479 µM; with EKVX NSCLC it was 0.937 µM; in the assay with RXF 393 renal it was 1.42 µM; in the assay on SK-MEL-28 melanoma, 2.68 µM. In addition, the GI50 with SNB-75 CNS was 3.37 µM; in the assay on SNB-19 CNS, 4.02 µM; in the assay with HL-60(TB) leukemia, 0.0205 µM; in the assay on M14 melanoma, 1.1 µM. The TGI stood at 4.49 µM in the assay on NCI-H460 lung; 7.89 µM in the assay with UACC-62 melanoma; 3.32 µM in the assay on SK-MEL-2 melanoma; 12.5 µM in the assay with EKVX NSCLC; 5.9 µM in the assay with RXF 393 renal; 9.62 µM in the assay on SK-MEL-28 melanoma. In addition, the TGI is 6.92 µM with SNB-75 CNS, 16 µM with SNB-19 CNS, 0.875 µM with HL-60(TB) leukemia and 5.98 µM in the assay with M14 melanoma.
